Source: patent US6521456B1, “Cellular transport system for the transfer of a nucleic acid through the nuclear envelope and methods thereof” (priority 1999, dated 2003)

Test system: promoter of the ampicillin resistance gene (expression vector DNA)
Assay: Binding of PNA-peptide-hybrids to double stranded vector DNA (inhibition of Earl cleavage at the PNA binding site)
Conditions: 25 μM PNA-peptide-hybrid, 100 ng vector
Method: 100 ng expression vector were incubated in TE (pH 7,8) with 25 μM of different PNA-peptide-hybrids at either 65° C. or 37° C. for five minutes to three hours. The PNA-sequence NH2-CTCTTCCTTTTTC-COOH (SEQ ID NO: 6) used here, binds to the promoter of the ampicillin resistance gene.
At the C-terminus either a peptide of 21 amino acids (Peptide 1) or 27 amino acids (Peptide 2) or a spacer of 10 AEEA-units (Fmoc-AEEA-OH Spacer, PerSeptive Biosystems Inc., Framingham, USA) followed by 27 amino acids (Peptide 3) is located. The binding assays were subsequently incubated with restriction endonuclease Earl. Restricted DNA was stained with YOYO (Molecular Probes, Inc., Eugene, Oreg., USA) separated on an agarose gel and quantified with a fluorescence scanner (Image Plate Reader FLA 2000, analysis software L-Process, version 1.6, Fuji Photo Film Co., Ltd., Tokio). Cleavage of DNA by restriction endonuclease Earl is inhibited at the PNA binding site. Additional Earl restriction sites serve as internal control of the reaction.

Substance: H-GKPSSDDEATADSQHSTPPKKKRKVED-OH [Peptide 2]
- Portion of peptide-labelled DNA shown as percentage of input DNA (37 °C, 60 min): 90%
- Portion of peptide-labelled DNA shown as percentage of input DNA (37 °C, 120 min): 91%
- Portion of peptide-labelled DNA shown as percentage of input DNA (37 °C, 180 min): 94%
- Portion of peptide-labelled DNA shown as percentage of input DNA (65 °C, 5 min): 96%
- Portion of peptide-labelled DNA shown as percentage of input DNA (65 °C, 10 min): 97%
- Portion of peptide-labelled DNA shown as percentage of input DNA (65 °C, 15 min): 97%

Substance: H-GKPTADDQHSTPPKKKRKVED-OH [Peptide 1]
- Portion of peptide-labelled DNA shown as percentage of input DNA (37 °C, 60 min): 85%
- Portion of peptide-labelled DNA shown as percentage of input DNA (37 °C, 120 min): 91%
- Portion of peptide-labelled DNA shown as percentage of input DNA (37 °C, 180 min): 94%
- Portion of peptide-labelled DNA shown as percentage of input DNA (65 °C, 5 min): 94%
- Portion of peptide-labelled DNA shown as percentage of input DNA (65 °C, 10 min): 96%
- Portion of peptide-labelled DNA shown as percentage of input DNA (65 °C, 15 min): 96%

Substance: NH2-(AEEA)10-GKPSSDDEATADSQHSTPPKKKRKVED-COOH [Peptide 3]
- Portion of peptide-labelled DNA shown as percentage of input DNA (37 °C, 60 min): 74%
- Portion of peptide-labelled DNA shown as percentage of input DNA (37 °C, 120 min): 76%
- Portion of peptide-labelled DNA shown as percentage of input DNA (37 °C, 180 min): 90%
- Portion of peptide-labelled DNA shown as percentage of input DNA (65 °C, 5 min): 91%
- Portion of peptide-labelled DNA shown as percentage of input DNA (65 °C, 10 min): 95%
- Portion of peptide-labelled DNA shown as percentage of input DNA (65 °C, 15 min): 95%
